Laboratory results from paper PMC8840040, “Pharmacokinetic Characterization of the DDAH1 Inhibitors ZST316 and ZST152 in Mice Using a HPLC-MS/MS Method” (Molecules, 2022).
Like-named read-outs stand apart in the source and are kept apart here. One block for each compound: values may come before it.

What was measured:
[1] = Plasma pharmacokinetics and urinary elimination after acute and chronic intraperitoneal administration; format: in vivo, FVB mice
Description: (§1) In this study, 18 mice received a single dose and were sampled within 24 h, and the other 18 were treated every day for three weeks (qdx21) and sampled on day 21. Mice were monitored daily for clinical signs of toxicity and distress, and body weight was measured at least twice a week. Blood samples were collected after both treatment regimens at 15 and 30 min, and 1, 3, 8, and 24 h post dose. Three mice were analyzed for each time point. After the animals were anesthetized with isoflurane, the blood was drained from the retro-orbital plexus into heparinized tubes, and then centrifuged for 10 min at 4000 g at 4 °C to separate plasma. A 24-h urine fraction was collected in three mice for each drug and route of administration. Plasma and urine samples were stored at −20 °C until analysis by HPLC-MS/MS.
(§2) […] chromatography was performed using a series 200 HPLC system (Perkin Elmer, Waltham, MA, USA) under gradient conditions with separation on a HILIC column, 3 µm, 100 A, 2.1 × 150 mm (Waters, Milford, MA, USA), coupled with a 3 µm, 3.9 × 5.0 mm guard column of the same material at the flow rate of 0.2 mL/min. Gradient features: 10% mobile phase (MP) A (NH4HCO2 10 mM, 10% CH3CN, 0.1% HCOOH) and 90% MP B (CH3CN, 0.1% HCOOH) as the initial constant condition; then to 90% MP A in 6 min and the constant condition for 1.5 min. Return to the start condition in 0.5 min and conditioning for 5.5 min. Total run time: 13.5 min. Mass spectrometric detection was performed using an API 4000 triple quadrupole mass spectrometer (SCIEX, Framingham, MA, USA) supplied with a Turbo Ion Spray source set at 350 °C and −4200 V, analyzing biological samples with electrospray ionization (ESI) operating in negative ion mode. Purified air was used as nebulizer gas (Gas 1) and heater gas (Gas 2) and N2 was used as curtain gas and collision activated dissociation gas. They were set to 40, 50, 20, and 4 instrument units (psi), respectively. The declustering potential (DP) was set at −119 V and the collision exit potential (CXP) at –10 V. All parameters of the source were defined by direct infusion of ZST316 and ZST152 1 µg/mL in mobile phase B. The final quantification was carried out in Selected Reaction Monitoring (SRM) with the following transitions: m/z 307.9 → 208.0 (collision energy of −29.5 eV) for ZST316 and m/z 271.9 → 170.9 (collision energy −24.7 eV) for ZST152 (Figure 2 and Figure 3). Data were processed with the software package Analyst 1.6.2 (AB SCIEX).
Pharmacokinetic parameters and descriptive statistics (means, standard deviations, percentages) were calculated using Phoenix WinNonlin V 8.3 (Certara Inc., Princeton, NJ, USA).

[2] = Urinary metabolites in 24 h urine by HPLC-MS/MS; format: in vivo, FVB mice
Description: The assessment of the urinary elimination after oral and intravenous administration, in the urine fraction collected 24 h post dose, is reported in Table 6. […] To further investigate this issue, we searched for the presence of urinary metabolites in the 24 h urine samples in one mouse per treatment group. We identified at least eight molecules most likely originating from the parent compounds (Table 7; see Supplementary Figure S1 for the hypothesized structures).
Mice were treated with ZST316 and ZST152 using a dose of 60 mg/Kg (oral gavage) and 30 mg/Kg (intravenous bolus). For pharmacokinetic sampling, blood was collected at 15 and 30 min, and 1, 3, 8, and 24 h post dose. Three mice were analyzed per each time point. After the animals were anesthetized with isoflurane, the blood was drained from the retro-orbital plexus into heparinized tubes, and then centrifuged for 10 min at 4000× g at 4 °C to separate plasma. A 24-h urine fraction was collected in three mice for each drug and route of administration. Plasma and urine samples were stored at −20 °C until analysis by HPLC-MS/MS.
as §2

[3] = Tolerability of chronic intraperitoneal treatment (clinical signs, body weight); format: in vivo; conditions: i.p. 30 mg/Kg/day for three weeks
Description: as §1

human recombinant DDAH1 = system: human recombinant DDAH1; design: method as in PMID 26420019; conditions: cited from earlier work; for IC50 / Ki: human recombinant DDAH1 expressed in HEK293T cells; for IC50: read-out: IC50 towards DDAH1; for Ki: read-out: Ki towards DDAH1
[4] = Stability in mouse plasma and urine; format: in vitro ADME; conditions: for stability in urine stored frozen: mice urine, −20 °C
Description: The extraction recovery, established on QCs at the concentrations of LLOQ (i.e., 5 ng/mL), at 15 and 250 ng/mL, fell in the range 88.9%–94.6% and 87.9%–117.5% for ZST316 and ZST152, respectively. The LLOQ in plasma was 5.0 ng/mL for both compounds, with precision of 7.1% and 4.1% and accuracy of 95.8% and 106.1% (n = 6) for ZST316 and ZST152, respectively (Table 1). We decided to validate this value as LLOQ even though the limit of detection (LOD) reached in the initial set up phase of the methods was established for both compounds at 1 ng/mL (S/N > 4.0). However, such sensitivity was not required as the expected range of activity (IC50) was markedly higher than the LLOQ value for both compounds. The linearity of the method, evaluated over three different analytical runs in the concentration range 5.0–500.0 ng/mL, was acceptable for both analytes, with an average coefficient of determination (R^2) of 0.990 and 0.992 for ZST316 and ZST152, respectively. […] Both ZST316 and ZST152 were stable in frozen plasma for at least one month at −20 °C. No chromatographic carry-over effect was observed injecting a blank sample after the highest standard calibration point. The method was considered suitable for preclinical pharmacokinetic investigations.
Both ZST316 and ZST152 were stable at 37 °C in mice urine for at least 24 h and stored frozen at −20°C for one month. No chromatographic carry-over effect was observed injecting a blank sample after the highest standard calibration point.

[5] = FVB, mouse, plasma, ip, i.p. 30 mg/Kg, acute
[6] = FVB, mouse, plasma, ip, i.p. 30 mg/Kg/day, chronic
[7] = after intravenous ZST316, total dose 1.326 mg, mouse #1, 24 h urine
[8] = after oral ZST316, total dose 1.308 mg, mouse #3, 24 h urine
[9] = after intravenous ZST152, total dose 1.410 mg, mouse #1, 24 h urine
[10] = after oral ZST152, total dose 1.158 mg, mouse #3, 24 h urine

Compound: COCCNC(=N)NCCC[C@H](N)C(=O)NS(C)(=O)=O [ZST316]
AUC(0-t) ([1]; FVB, mouse, plasma, ip, 30 mg/kg, i.p. 30 mg/Kg, acute, read-out: AUC 0-8h): 14300 ng·h/mL | AUC(0-t) ([1]; FVB, mouse, plasma, ip, 30 mg/kg, i.p. 30 mg/Kg, acute, read-out: AUC 0-last): 14400 ng·h/mL | AUC(0-t) ([1]; FVB, mouse, plasma, ip, 30 mg/kg/day, i.p. 30 mg/Kg/day, chronic, read-out: AUC 0-8h): 12300 ng·h/mL | AUC(0-t) ([1]; FVB, mouse, plasma, ip, 30 mg/kg/day, i.p. 30 mg/Kg/day, chronic, read-out: AUC 0-last): 12600 ng·h/mL | AUC(0-inf) [1, 5]: 14500 ng·h/mL | Tmax [1, 5]: 0.25 h | half-life [1, 5]: 5.7 h | Cmax ([1]; FVB, mouse, plasma, ip, i.p. 30 mg/Kg, acute (single dose)): 40200 ng/mL | bioavailability ([1]; FVB, mouse, plasma, ip, i.p. 30 mg/Kg, acute, read-out: F % (bioavailability)): 67% | Cmax at 21 days ([1]; FVB, mouse, plasma, ip, i.p. 30 mg/Kg/day for three weeks, chronic (day 21)): 33600 ng/mL | AUC(0-inf) [1, 6]: 12700 ng·h/mL | Tmax [1, 6]: 0.25 h | half-life [1, 6]: 8.4 h | bioavailability at 21 days ([1]; FVB, mouse, plasma, ip, i.p. 30 mg/Kg/day, chronic, read-out: F % (bioavailability)): 59% | 24-h urinary excretion (% of dose) ([1]; i.p. 30 mg/Kg, acute): 56.1 % of dose | urinary excretion, % of the administered dose ([1]; i.p. 30 mg/Kg, acute/chronic not distinguished): 55% | accumulation after chronic treatment ([1]; i.p. 30 mg/Kg/day for three weeks, 30 mg/kg/day): no accumulation was observed | 24-h urinary excretion (% of dose) ([1]; i.p. 30 mg/Kg/day, chronic): 54.1 % of dose | % of Dose recovered in urine [2, 7]: 3.1% | Amount Recovered in urine [2, 7]: 41.2 µg | % of Dose recovered in urine [2, 8]: 2.2% | Amount Recovered in urine [2, 8]: 28.9 µg | tolerability of chronic treatment [3]: well tolerated | body weight during treatment vs. untreated animals ([3]; 30 mg/kg/day): no changes in body weight vs. untreated animals | clinical signs of toxicity or distress ([3]; 30 mg/kg/day): no clinical signs of toxicity or distress were noticed | IC50 (human recombinant DDAH1): 3 µM | Ki (human recombinant DDAH1): 1 µM | greater inhibitory activity towards DDAH1 compared to reference inhibitor L-257 (human recombinant DDAH1; vs L-257): 13 fold | stability in mice urine at 37 °C [4]: at least 24 h | stability in urine stored frozen [4]: one

% of Dose recovered in urine [2, 9]: 10.5% | Amount Recovered in urine [2, 9]: 148 µg | % of Dose recovered in urine [2, 10]: 6.5% | Amount Recovered in urine [2, 10]: 75.0 µg | stability in mice urine at 37 °C [4]: at least 24 h | stability in urine stored frozen [4]: one
Compound: COCCNC(=N)NCCC[C@H](N)c1noc(=O)[nH]1 [ZST152]
IC50 (human recombinant DDAH1): 18 µM | Ki (human recombinant DDAH1): 7 µM
